Measurements reported in patent US20090176711A1, “INHIBITORS OF AMYLOID PRECURSOR PROTEIN PROCESSING” (priority 2008, published 2009).
“Also recorded” adds a separate entry of the source. Non-standard residues stand in square brackets, D forms with d. No end group written: not given here. *: point of attachment. Biotin = O=C1N[C@H]2[C@H](CS[C@H]2CCCCC(=O)*)N1; Dnp = O=[N+]([O-])c1ccc(*)c([N+](=O)[O-])c1; Mca = COc1ccc2c(CC(=O)*)cc(=O)oc2c1; Ahx = NCCCCCC(=O)O

What was measured:
[1] = tested on: cleavage of Substrate M by β-secretase; assay: Inhibition of cleavage of Substrate M by β-secretase by complementary and deletion peptides (Examples 1, 5, 6; assay format not stated); assay type: biochemical; conditions: for inhibitory activity of deletion peptides on cleavage of Substrate M: 10 inhibitor/substrate ratio, Substrate M 50 μM; for concentration dependent inhibitory activity, activity group: various concentrations, Substrate M (FIG. 8); for inhibition of cleavage of Substrate M by β-secretase: FIG. 4
Procedure: So far we have focused on c-Sub M peptide. Serial deletions were made from N-terminus or C-terminus of c-Sub M (FIG. 5), and we investigated effect of the deletions on the cleavage of Substrate M. The optimum peptide/substrate ratio for inhibition on the cleavage of substrate was determined by observing the inhibition percentage at various peptide/substrate ratios (FIG. 4). Subsequently, the inhibitory activity of the deletion peptides were tested at 10 inhibitor/substrate ratio and the concentration of the Substrate M was 50 μM. Deletion of the first two amino acids from the N-terminus had little effect on the activity and deletion of five amino acids from the C-terminus of c-Sub M had little effect on the inhibitory activity (FIG. 6). Further deleted peptides were tested for inhibitory activity on the cleavage of Substrate M (FIG. 7).
The above-mentioned peptides that have inhibitory activity were tested at various concentrations for their inhibitory activities on their mutant substrate Substrate M (FIG. 8).

[2] = tested on: cleavage of F-Substrate M (f-Sub M) by rhBACE1; assay: Fluorometric (FRET) assay for cleavage of F-Substrate M by rhBACE; assay type: biochemical, human; conditions: for inhibitory activity for cleavage of f-Sub M by rhBACE1: f-Sub M 10 μM
Excerpt: This assay system utilizes fluorescence resonance energy transfer (FRET) technology. Substrate M was synthesized with two fluorophores, a fluorescent donor and a proprietary quenching acceptor (purchased from a commercial source, R&D Systems). […] Upon cleavage of substrate by β-secretase, the fluorophore is separated from the quenching group, restoring the full fluorescence yield of donor.
Substrate labeled with fluorophores will be called F-Substrate M (R&D Systems). Recombinant human β-secretase will be called rhBACE (recombinant human β-site APP cleavage enzyme) (purchased from R&D systems).
F-Substrate M (20 μM) was preincubated with varying concentrations of complementary peptides in assay buffer (0.1 M NaOAc, pH 4.0) for 1 hr at RT. rhBACE (70 nM) in assay buffer was added. Cleavage by rhBACE was detected by reading emitted fluorescence level.
In this assay system, fluorescence resonance energy transfer (FRET) technology was utilized. Swedish mutant APP substrate (f-Sub M) with a fluorescent donor and a proprietary quenching acceptor (7-methoxycoumarin-4-acetyl-SEVNLDAEFRK(Dnp)-RR-NH2) was purchased from R&D systems, Inc (MN, USA). […] Upon cleavage of substrate by rhBACE1 (R&D Systems, Inc., MN, USA), the fluorescence donor is separated from the quenching group, restoring the full fluorescence yield of the donor. f-Sub M (10 μM) was pre-incubated with HC peptide in assay buffer (0.1 M NaOAc, pH 4.0) for 2 h at RT. After pre-incubation, substrate and HC peptide mixture in assay buffer was transferred to FluoroNunc™ 96 well white plate (Nunc, Roskilde, Denmark), and rhBACE1 (70 nM) was added. Time-dependent emission of fluorescence (excitation at 320 nm, emission at 405 nm) was monitored in a Molecular Devices SpectraMax Gemini EM fluorescence reader (CA, USA) for 1 h at 37° C. All assays were carried out in duplicate.

[3] = biological target: T1, Substrate W (Sub W, SEVKMDAEFR; β-secretase cleavage site of wild type APP) (Homo sapiens, UniProt P05067); assay: Binding of biotin-labeled Substrate W to immobilized complementary (HC) peptides; conditions: complementary peptide immobilized, biotin-labeled Substrate W
T1 construct: […]; purchased Peptron, Inc; host or cells: chemical synthesis
Procedure: (§1) Complementary peptides (0.2, 2, 20, and 200 μM) were dissolved in phosphate buffered saline (PBS) (pH 7.4) and fixed to microtiter wells for 5 hr at 37° C. The wells were blocked with blocking buffer (3% BSA/PBS) for 1 hr at 37° C. Either N-terminally biotinylated Substrate W or M (20 μM) in blocking buffer was added and incubated for overnight at 4° C. Streptavidin-horseradish peroxidase in blocking buffer was added to detect resulting bound substrates. The plate was incubated for 2 hr at room temperature (RT), followed by addition of 3,3′,5,5′-tetramethyl-benzidine (TMB) as substrate for horseradish peroxidase for color reaction.
In particular, for Substrate W, complementary peptides (200 μM) dissolved in phosphate buffered saline (PBS) (pH 7.4) were chemically coupled to Reacti-Bind Maleic Anhydride Activated Polystyrene wells (Pierce Biotechnology, Inc.) for overnight at room temperature (RT). Remaining active sites of the plate were inactivated by adding ethanolamine (1 M) for 1 hr at RT. The wells were blocked with blocking buffer (3% BSA/PBS) for 1 hr at RT. N-terminally biotinylated Substrate W (20 μM) in blocking buffer was added and incubated for 3 hr at RT. Streptavidin-horseradish peroxidase in blocking buffer was added to detect resulting bound substrates. The plate was incubated for 2 hr at room temperature (RT), followed by addition of 3,3′,5,5′-tetramethyl-benzidine (TMB) as substrate for horseradish peroxidase for color reaction.
(§2) Reacti-Bind™ maleic anhydride-activated polystyrene plate (Pierce, IL, USA) was coated with 50 μl of HC peptide (200 μM in distilled water) by chemical coupling for 3 h at room temperature (RT) and washed three times with phosphate buffered saline (PBS) containing 0.05% tween 20 (PBST). The plate was blocked with blocking buffer (0.5% gelatin in PBS) for 1 h at RT. After discarding blocking buffer, biotinylated BACE1 substrates (200 μM) in blocking buffer was applied on the plate and incubated for 2.5 h at RT. Each well was washed three times with PBST. The bound biotinylated BACE1 substrates were detected by incubation with streptavidin-horseradish peroxidase (Str-HRP, 125 mU/ml in blocking buffer) for 2 h at RT. Color reaction was carried out with 50 μl of 3,3′,5,5′-Tetramethylbenzidine Liquid Substrate (Sigma-Aldrich, MO, USA). After stopping the reaction by addition of an equal volume of 1 N HCl, absorbance at 450 nm was read in an automated ELISA reader (EL 312e, Bio-Tek Instruments, VT, USA). All assays were carried out in duplicate.

[4] = tested on: Substrate M (Sub M, SEVNLDAEFR; β-secretase cleavage site of APPsw); assay: Binding of biotin-labeled Substrate M to immobilized complementary (HC) peptides; conditions: for binding activity for Sub M: HC peptides chemically coupled to plate, bio-Sub M
Procedure: as §1, §2

[5] = tested on: APP processing in HEK293-APP cells; assay: APP inhibitor activity on HEK293-APP cells (βCTF Western blot); assay type: cell-based, human; conditions: γ-secretase inhibitor and cholesterol added
Procedure: In the neuronal cells of the brain, APP is processed by α-secretase or β-secretase. To investigate the effects of the inhibitors on the cell, a cell based assay system was developed as described in FIG. 10. C-terminal fragment of APP remaining on the cell membrane was detected by Western blot. The resulting C-terminal fragments, αCTF or βCTF are further processed by γ-secretase. However, if the cells are treated with the γ-secretase inhibitor, this processing is blocked. As a result, αCTF or βCTF accumulate in the cell. If β-secretase inhibitor or APP inhibitor is added, this processing is blocked and βCTF disappears.
In addition, γ-secretase inhibitor and cholesterol were added to the cells to increase βCTF level. Commercially available peptide-based β-secretase inhibitor was included as control (Lane 6, FIG. 11). To detect the N-terminal fragment of β-amyloid which is a product of APP processing, 6E10 antibody was employed. […] Recently, it has been reported that the commercially available peptide-based inhibitor had to be linked to an oligoarginine transporter peptide to have inhibitory activity against cells. Therefore, mimetic approach is adopted to produce cell permeable analogs. (Chang et al. J. Neurochemistry 2004; 89:1409-1416).
After confirming the ability of the oligo-arginine coupled APP inhibitors to enter the cells, the inhibitors were applied to HEK293-APP cells overexpressing APP to test their inhibitory activities on APP processing. […] This inhibitor started to show significant inhibitory activity beginning from 0.1 μM (lower panel).

[6] = biological target: T2, f-Sub M (7-methoxycoumarin-4-acetyl-SEVNLDAEFRK(Dnp)-RR-NH2); assay: cell-based or functional assay
T2 peptide: Mca-SEVNLDAEFRK(Dnp)RR-NH2

[7] = biological target: T3, Sub-ST6Ga11; assay: cell-based or functional assay
T3 peptide: DYEALTLQAKEFQMPKSQE

[8] = biological target: T4, Substrate M (non-labeled); assay: cell-based or functional assay
T4 peptide: SEVNLDAEFR

[9] = biological target: T5, N-terminally biotinylated Substrate W; assay: plate assay: HC peptide chemically coupled to wells, bio-Sub W, streptavidin-HRP (FIG. 27)
T5 construct: also called bio-Sub W; Sub W
T5 peptide: Biotin-SEVKMDAEFR
Procedure: as §2
Thereafter, it was investigated if the c-Sub M and the deletions series bind to wild type Sub W. The results will give us important information on possibility of inhibition of wild type of APP cleavage in cells by the HC peptides derived from Sub M in view of the poor cleavage of Sub W by rhBACE1 in vitro. […] Thus, there is possibility that the HC peptides for Sub M (c-Sub M series) or its peptidomimetics will inhibit the cleavage of wild type APP by BACE1 in cells.

CIQI [C-Sub MΔN3C3]
inhibitory activity of deletion peptides on cleavage of Substrate M [1]: considerable inhibitory activity | concentration dependent inhibitory activity, activity group [1]: medium activity

CIQIHF (also: cyclic, mode of cyclisation not given here) [c-Sub M ΔN3C1]
inhibitory activity for cleavage of f-Sub M by rhBACE1 ([2]; N-terminal deletions of c-Sub M ΔC1, HC peptide 0.5 mM): maintains much of the original activity of c-Sub M; also recorded: without sacrificing the inhibitory activity too much | inhibitory activity relative to c-Sub M ΔN1C1 ([2]; substrate concentration 10 μM): about one tenth | inhibitory activity of deletion peptides on cleavage of Substrate M [1]: considerable inhibitory activity | concentration dependent inhibitory activity, activity group [1]: less activity

RLHFYLRLKA [Sub W-c]
binding to Substrate W [3]: do not bind | inhibition of cleavage of Substrate M by β-secretase [1]: do not inhibit cleavage

RLHLDLRLKA [Sub M-c]
binding to Substrate M ([4]; complementary peptide immobilized, biotin-labeled Substrate M): do not bind | inhibition of cleavage of Substrate M by β-secretase [1]: do not inhibit cleavage

SEFC (also: cyclic, mode of cyclisation not given here) [c-Sub MΔC6]
absorbance in binding test ([4]; substrate not specified): high absorbance | inhibitory activity on APP processing (βCTF) [5]: none of the inhibitors tested showed inhibitory activity

SEFCI (also: cyclic, mode of cyclisation not given here) [c-SubM ΔC5]
concentration dependent inhibitory activity, activity group [1]: medium activity

SEFCIHLHFR (also: cyclic, mode of cyclisation not given here) [c-Sub W]
binding activity for Sub M [4]: weak but significant binding | binding to Substrate W [3]: bind | inhibitory activity for cleavage of f-Sub M by rhBACE1 ([2]; HC peptide 1 mM): higher inhibitory activity | inhibition of cleavage of Substrate M by β-secretase [1]: inhibit cleavage | concentration dependent inhibitory activity, activity group [1]: medium activity

SEFCIQI (also: cyclic, mode of cyclisation not given here) [c-SubM ΔC3]
concentration dependent inhibitory activity, activity group [1]: most active group

SEFCIQIHF [c-Sub M ΔC1]
binding activity for Sub M [4]: relatively high binding activity

SEFCI-NH2 [c-Sub M ΔC5]
inhibitory activity for the cleavage of f-Sub M by rhBACE1 (FRET; HC peptide 1 mM, f-Sub M 10 µM) [6]: > 90%

SEFCIQI-NH2 [c-Sub M ΔC3]
inhibitory activity for the cleavage of f-Sub M by rhBACE1 (FRET; HC peptide 1 mM, f-Sub M 10 µM) [6]: > 90%

SEFCIQIH-NH2 [c-Sub M ΔC2]
inhibitory activity for the cleavage of f-Sub M by rhBACE1 (FRET; HC peptide 1 mM, f-Sub M 10 µM) [6]: 44%

FCIQIHF-NH2 (also called FCIQIHF) [c-Sub M ΔN2C1]
percent of ST6Ga11 peptide cleavage by β-secretase blocked (HPLC), 25-fold inhibitor [7]: 25% | percent of Sub M cleavage by β-secretase blocked (HPLC), 25-fold inhibitor [8]: ~60% | binding result [9]: binds

CIQIHF-NH2 (also called c-Sub M ΔC1N3; c-Sub ΔN3C1) [c-Sub M ΔN3C1]
inhibitory activity relative to c-Sub M ΔN1C1, f-Sub M (10 µM) cleavage by rhBACE1 (FRET) [6]: ~0.1 fold of c-Sub M ΔN1C1 | binding result [9]: binds

B1: c-Sub M ΔN1C1 (peptide)
peptide: EFCIQIHF-NH2
notes: also called one amino acid deletion from N-terminal of c-Sub M ΔC1
inhibition of the cleavage of Sub-ST6Ga11 by rhBACE1 (HPLC), inhibitor/substrate ratio 20 [7]: 40% | inhibition of the cleavage of Sub-ST6Ga11 by rhBACE1 (HPLC), up to 10 inhibitor/substrate ratio [7]: ~10% | inhibition of the cleavage of Sub M by rhBACE1 (HPLC), inhibitor/substrate ratio 20 [8]: 100% | inhibition of the cleavage of Sub M by rhBACE1 (HPLC), up to 10 inhibitor/substrate ratio [8]: 60% | IC50 of inhibition of f-Sub M (10 µM) cleavage by rhBACE1 (FRET) [6]: 15 µM | fold binding to Sub W relative to c-Sub W [9]: 2.5 fold

B2: 6-aminohexanoic acid-c-Sub M ΔN3C1 (peptide)
peptide: [Ahx]CIQIHF-NH2
modifications: N-terminus assumed
SMILES: CC[C@H](C)[C@H](NC(=O)[C@H](CCC(N)=O)NC(=O)[C@@H](NC(=O)[C@H](CS)NC(=O)CCCCCN)[C@@H](C)CC)C(=O)N[C@@H](Cc1c[nH]cn1)C(=O)N[C@@H](Cc1ccccc1)C(N)=O
in vitro inhibitory activity on cleavage of f-Sub M by rhBACE1 relative to c-Sub M ΔN3C1 (FRET) [6]: ~0.5 fold of c-Sub M ΔN3C1

SEFCIQ-NH2 [c-Sub M ΔC4]
inhibitory activity for the cleavage of f-Sub M by rhBACE1 (FRET; HC peptide 1 mM, f-Sub M 10 µM) [6]: > 90%
